According to PubChem BioAssay (NCI):
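48-hour exposure; five concentrations; linearly interpolated endpoints. Definition used: TGI = concentration required for complete inhibition of growth.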

Tests used:
Experiment in all cases: growth of human tumour cells (NCI), 48 h
786-0 renal = tested on: 786-0 renal
A498 renal = tested on: A498 renal
A549 NSCLC = tested on: A549 NSCLC
ACHN renal = tested on: ACHN renal
BT-549 breast = tested on: BT-549 breast
CAKI-1 renal = tested on: CAKI-1 renal
CCRF-CEM leukemia = tested on: CCRF-CEM leukemia
COLO 205 colon = tested on: COLO 205 colon
DU-145 prostate = tested on: DU-145 prostate
EKVX NSCLC = tested on: EKVX NSCLC
HCC-2998 colon = tested on: HCC-2998 colon
HCT-116 colon = tested on: HCT-116 colon
HCT-15 colon = tested on: HCT-15 colon
HL-60(TB) leukemia = tested on: HL-60(TB) leukemia
HOP-62 NSCLC = tested on: HOP-62 NSCLC
HOP-92 NSCLC = tested on: HOP-92 NSCLC
HS 578T breast = tested on: HS 578T breast
HT29 colon = tested on: HT29 colon
IGROV1 ovarian = tested on: IGROV1 ovarian
K-562 leukemia = tested on: K-562 leukemia
KM12 colon = tested on: KM12 colon
LOX IMVI melanoma = tested on: LOX IMVI melanoma
M14 melanoma = tested on: M14 melanoma
MALME-3M melanoma = tested on: MALME-3M melanoma
MCF7 breast = tested on: MCF7 breast
MDA-MB-231 breast = tested on: MDA-MB-231 breast
MDA-MB-435 = tested on: MDA-MB-435
MDA-N = tested on: MDA-N
MOLT-4 leukemia = tested on: MOLT-4 leukemia
NCI-H226 lung = tested on: NCI-H226 lung
NCI-H23 lung = tested on: NCI-H23 lung
NCI-H460 lung = tested on: NCI-H460 lung
NCI-H522 lung = tested on: NCI-H522 lung
NCI/ADR-RES ovarian = tested on: NCI/ADR-RES ovarian
OVCAR-3 ovarian = tested on: OVCAR-3 ovarian
OVCAR-4 ovarian = tested on: OVCAR-4 ovarian
OVCAR-5 ovarian = tested on: OVCAR-5 ovarian
OVCAR-8 ovarian = tested on: OVCAR-8 ovarian
PC-3 prostate = tested on: PC-3 prostate
RPMI-8226 leukemia = tested on: RPMI-8226 leukemia
RXF 393 renal = tested on: RXF 393 renal
SF-268 CNS = tested on: SF-268 CNS
SF-295 CNS = tested on: SF-295 CNS
SF-539 CNS = tested on: SF-539 CNS
SK-MEL-2 melanoma = tested on: SK-MEL-2 melanoma
SK-MEL-28 melanoma = tested on: SK-MEL-28 melanoma
SK-MEL-5 melanoma = tested on: SK-MEL-5 melanoma
SK-OV-3 ovarian = tested on: SK-OV-3 ovarian
SN12C renal = tested on: SN12C renal
SNB-19 CNS = tested on: SNB-19 CNS
SNB-75 CNS = tested on: SNB-75 CNS
SR leukemia = tested on: SR leukemia
SW-620 colon = tested on: SW-620 colon
T-47D breast = tested on: T-47D breast
TK-10 renal = tested on: TK-10 renal
U251 CNS = tested on: U251 CNS
UACC-257 melanoma = tested on: UACC-257 melanoma
UACC-62 melanoma = tested on: UACC-62 melanoma
UO-31 renal = tested on: UO-31 renal

SMILES: CC(C)[Si]1(C(C)C)OCC2OC(N3C(=O)NC(=O)C[C@@H]3C(O)c3ccccc3)CC2O[Si](C(C)C)(C(C)C)O1 (stereo partly drawn)
- TGI (786-0 renal): 12.5 µM
- TGI (A498 renal): 17.7 µM
- TGI (A549 NSCLC): 24.1 µM
- TGI (ACHN renal): 19.7 µM
- TGI (BT-549 breast): 33.4 µM
- TGI (CAKI-1 renal): 30.7 µM
- TGI (CCRF-CEM leukemia): 8.46 µM
- TGI (COLO 205 colon): 25.8 µM
- TGI (DU-145 prostate): 26.5 µM
- TGI (EKVX NSCLC): 23.4 µM
- TGI (HCC-2998 colon): 4.46 µM
- TGI (HCT-116 colon): 9.79 µM
- TGI (HCT-15 colon): 18.1 µM
- TGI (HL-60(TB) leukemia): 21.6 µM
- TGI (HOP-62 NSCLC): 27.5 µM
- TGI (HOP-92 NSCLC): 20.4 µM
- TGI (HS 578T breast): 8.71 µM
- TGI (HT29 colon): 6.59 µM
- TGI (IGROV1 ovarian): 17.6 µM
- TGI (K-562 leukemia): > 30.2 µM
- TGI (KM12 colon): 7.1 µM
- TGI (LOX IMVI melanoma): 10.7 µM
- TGI (M14 melanoma): 30.1 µM
- TGI (MALME-3M melanoma): 12.8 µM
- TGI (MCF7 breast): 15.2 µM
- TGI (MDA-MB-231 breast): 12.1 µM
- TGI (MDA-MB-435): 18.2 µM
- TGI (MDA-N): 9.61 µM
- TGI (MOLT-4 leukemia): 9.31 µM
- TGI (NCI-H226 lung): 8.9 µM
- TGI (NCI-H23 lung): 21.6 µM
- TGI (NCI-H460 lung): 34.3 µM
- TGI (NCI-H522 lung): 7.77 µM
- TGI (NCI/ADR-RES ovarian): 13.4 µM
- TGI (OVCAR-3 ovarian): 11.4 µM
- TGI (OVCAR-4 ovarian): 14.8 µM
- TGI (OVCAR-5 ovarian): 27.6 µM
- TGI (OVCAR-8 ovarian): 17.3 µM
- TGI (PC-3 prostate): 15.3 µM
- TGI (RPMI-8226 leukemia): 12.2 µM
- TGI (RXF 393 renal): 13.4 µM
- TGI (SF-268 CNS): 10.6 µM
- TGI (SF-295 CNS): 9.97 µM
- TGI (SF-539 CNS): 32.4 µM
- TGI (SK-MEL-2 melanoma): 27.3 µM
- TGI (SK-MEL-28 melanoma): 12.9 µM
- TGI (SK-MEL-5 melanoma): 26.3 µM
- TGI (SK-OV-3 ovarian): 11.8 µM
- TGI (SN12C renal): 12.2 µM
- TGI (SNB-19 CNS): 25.4 µM
- TGI (SNB-75 CNS): 17.6 µM
- TGI (SR leukemia): > 19.8 µM
- TGI (SW-620 colon): 9 µM
- TGI (T-47D breast): 14.7 µM
- TGI (TK-10 renal): 24 µM
- TGI (U251 CNS): 9.06 µM
- TGI (UACC-257 melanoma): 16.5 µM
- TGI (UACC-62 melanoma): 22.4 µM
- TGI (UO-31 renal): 24.8 µM

SMILES: NC(CSS(=O)(=O)c1ccccc1)C(=O)O (stereo not drawn)
- TGI (786-0 renal): > 10 µM
- TGI (A498 renal): > 10 µM
- TGI (A549 NSCLC): > 10 µM
- TGI (ACHN renal): > 10 µM
- TGI (BT-549 breast): > 10 µM
- TGI (CAKI-1 renal): > 10 µM
- TGI (CCRF-CEM leukemia): > 10 µM
- TGI (COLO 205 colon): > 10 µM
- TGI (DU-145 prostate): > 10 µM
- TGI (EKVX NSCLC): > 10 µM
- TGI (HCC-2998 colon): > 10 µM
- TGI (HCT-116 colon): > 10 µM
- TGI (HCT-15 colon): > 10 µM
- TGI (HL-60(TB) leukemia): > 10 µM
- TGI (HOP-62 NSCLC): > 10 µM
- TGI (HOP-92 NSCLC): > 10 µM
- TGI (HS 578T breast): > 10 µM
- TGI (HT29 colon): > 10 µM
- TGI (IGROV1 ovarian): > 10 µM
- TGI (K-562 leukemia): > 10 µM
- TGI (KM12 colon): > 10 µM
- TGI (LOX IMVI melanoma): > 10 µM
- TGI (M14 melanoma): > 10 µM
- TGI (MALME-3M melanoma): > 10 µM
- TGI (MCF7 breast): > 10 µM
- TGI (MDA-MB-231 breast): > 10 µM
- TGI (MDA-MB-435): > 10 µM
- TGI (MDA-N): > 10 µM
- TGI (MOLT-4 leukemia): > 10 µM
- TGI (NCI-H226 lung): > 10 µM
- TGI (NCI-H23 lung): > 10 µM
- TGI (NCI-H460 lung): > 10 µM
- TGI (NCI-H522 lung): > 10 µM
- TGI (NCI/ADR-RES ovarian): > 10 µM
- TGI (OVCAR-3 ovarian): > 10 µM
- TGI (OVCAR-4 ovarian): > 10 µM
- TGI (OVCAR-5 ovarian): > 10 µM
- TGI (OVCAR-8 ovarian): > 10 µM
- TGI (PC-3 prostate): > 10 µM
- TGI (RPMI-8226 leukemia): > 10 µM
- TGI (RXF 393 renal): > 10 µM
- TGI (SF-268 CNS): > 10 µM
- TGI (SF-295 CNS): > 10 µM
- TGI (SF-539 CNS): > 10 µM
- TGI (SK-MEL-2 melanoma): > 10 µM
- TGI (SK-MEL-28 melanoma): > 10 µM
- TGI (SK-MEL-5 melanoma): > 10 µM
- TGI (SK-OV-3 ovarian): > 10 µM
- TGI (SN12C renal): > 10 µM
- TGI (SNB-19 CNS): > 10 µM
- TGI (SNB-75 CNS): > 10 µM
- TGI (SR leukemia): > 10 µM
- TGI (SW-620 colon): > 10 µM
- TGI (T-47D breast): > 10 µM
- TGI (TK-10 renal): > 10 µM
- TGI (U251 CNS): > 10 µM
- TGI (UACC-257 melanoma): > 10 µM
- TGI (UACC-62 melanoma): > 10 µM
- TGI (UO-31 renal): > 10 µM
